Data as given in the Kinase Knowledgebase extract (Sharma et al. 2016).

Target: EGFR (human) (UniProt P00533)
Conditions: for inhibition: nci-h1975, concentration not given here

Chain of EGFR (human) (P00533 whole entry, looked up): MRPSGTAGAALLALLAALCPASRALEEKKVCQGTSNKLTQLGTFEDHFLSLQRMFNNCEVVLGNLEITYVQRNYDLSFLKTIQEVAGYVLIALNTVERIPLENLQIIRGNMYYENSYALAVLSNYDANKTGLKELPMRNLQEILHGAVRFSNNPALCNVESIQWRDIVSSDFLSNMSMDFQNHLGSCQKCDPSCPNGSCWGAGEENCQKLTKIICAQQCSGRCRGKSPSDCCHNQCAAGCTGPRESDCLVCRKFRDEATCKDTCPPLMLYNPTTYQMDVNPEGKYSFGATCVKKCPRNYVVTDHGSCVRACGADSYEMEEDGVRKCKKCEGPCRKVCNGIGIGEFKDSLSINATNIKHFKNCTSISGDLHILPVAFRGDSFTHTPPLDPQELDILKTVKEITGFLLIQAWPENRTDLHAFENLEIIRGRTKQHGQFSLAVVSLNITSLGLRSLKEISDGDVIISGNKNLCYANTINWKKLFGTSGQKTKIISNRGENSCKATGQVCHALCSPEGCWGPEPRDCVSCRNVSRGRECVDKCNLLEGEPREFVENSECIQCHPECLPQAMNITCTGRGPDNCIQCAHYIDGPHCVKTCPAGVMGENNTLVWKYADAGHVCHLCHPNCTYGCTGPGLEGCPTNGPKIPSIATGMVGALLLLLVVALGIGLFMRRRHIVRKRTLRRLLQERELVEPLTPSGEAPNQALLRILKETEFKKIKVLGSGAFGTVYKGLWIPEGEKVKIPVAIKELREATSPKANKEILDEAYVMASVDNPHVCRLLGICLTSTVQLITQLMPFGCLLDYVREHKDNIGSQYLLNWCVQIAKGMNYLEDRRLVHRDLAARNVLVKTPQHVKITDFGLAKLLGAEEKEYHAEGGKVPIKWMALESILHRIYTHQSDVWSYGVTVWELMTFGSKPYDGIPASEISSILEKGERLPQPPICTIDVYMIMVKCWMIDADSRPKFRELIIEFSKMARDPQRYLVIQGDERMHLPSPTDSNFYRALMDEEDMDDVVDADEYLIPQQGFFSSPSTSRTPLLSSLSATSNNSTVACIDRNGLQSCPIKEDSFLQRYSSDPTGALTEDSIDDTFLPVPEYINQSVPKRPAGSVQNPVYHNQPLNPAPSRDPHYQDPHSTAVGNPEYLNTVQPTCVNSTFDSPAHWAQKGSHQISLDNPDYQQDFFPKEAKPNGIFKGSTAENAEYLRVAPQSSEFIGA

## COc1cccc(-c2cc(=O)c3ccccc3o2)c1N
  inhibition: < 25%

## Cc1cc(Nc2cc(N3CCN(C)CC3)nc(Sc3ccc(NC(=O)C4CC4)cc3)n2)[nH]n1
  inhibition: 34%

## CC(Nc1ncnc2[nH]c(-c3ccc(O)cc3)cc12)c1ccccc1 (stereo not given)
nci-h1975
  IC50: 8 µM

## CC(C)(C)c1nc2c3ccc(F)cc3c3c(=O)[nH]ccc3c2[nH]1
  inhibition: < 25%

## O=c1ncn2nc(Sc3ccc(F)cc3F)ccc2c1-c1c(Cl)cccc1Cl
  inhibition: < 25%

## O=C1NC(=O)C(c2ccccc2[N+](=O)[O-])=C1Nc1ccc(O)c(Cl)c1
  inhibition: < 25%

## Cc1ccc(NC(=O)c2cccc(N(C)C)c2)cc1NC(=O)c1ccc(O)cc1
  inhibition: < 25%

## O=C1Nc2ccc(I)cc2/C1=C\c1cc(Br)c(O)c(Br)c1
  inhibition: < 25%

## Cc1cc(Nc2ncc3cc(-c4c(Cl)cccc4Cl)c(=O)n(C)c3n2)ccc1F
  inhibition: 55%

## c1ccc(-c2n[nH]cc2-c2ccnc3ccccc23)nc1
  inhibition: < 25%

## O=C(Nc1cc(C(F)(F)F)cc(C(F)(F)F)c1)c1cc(Cl)ccc1O
  inhibition: 76%

## NC(=O)Nc1sc(-c2ccc(F)cc2)cc1C(N)=O
  inhibition: 35%

## Cc1cc(C)c(/C=C2\C(=O)Nc3ccc(Cl)cc32)[nH]1
  inhibition: < 25%

## COc1cc2ncnc(Nc3ccc(OCc4ccccc4)cc3)c2cc1OC
  inhibition: < 25%

## CC(C)[C@H](CO)Nc1nc(Nc2ccc(C(=O)O)c(Cl)c2)c2ncn(C(C)C)c2n1
  inhibition: < 25%

## OCCC#Cc1nc(-c2ccc(F)cc2)c(-c2ccncc2)n1CCCc1ccccc1
  inhibition: < 25%

## Cc1ccc(NC(=O)c2ccc(CN3CCN(C)CC3)cc2)cc1Nc1nccc(-c2cccnc2)n1
  inhibition: < 25%

## Cn1cc(C2=C(c3ccc(Cl)cc3Cl)C(=O)NC2=O)c2ccccc21
  inhibition: 37%

## CC(C)(C)n1nc(-c2cccc3ccccc23)c2c(N)ncnc21
  inhibition: 60%

## CC(C)(C)c1cnc(CSc2cnc(NC(=O)C3CCNCC3)s2)o1
  inhibition: 63%
